According to patent publication US20180119156A1, “[…] GENE EXPRESSION” (priority 2015, published 2018):

Tests used:
[1] = test system: thyA-deficient E. coli DH10B strain
Description: A comparison of a single intron construct with a construct of the present invention featuring a tandem self-splicing intron was made (FIG. 9). Growth (OD600) was plotted against time (minutes) in the presence (1 mM) and absence (0 mM) of theophylline for the construct designed by Thompson et al. (Thompson et al. 2002 BMC Biotechnol. 2: 21) utilising one theophylline-dependent intron in thyA, in a thyA-deficient E. coli DH10B strain (FIG. 9A). […] Growth was measured in the same way for a construct containing an E. coli thyA gene interrupted by two theophylline-dependent introns, which was transformed into a thyA-deficient E. coli DH10B strain. The overnight growth was plotted against the theophylline concentration in the medium (FIG. 9B).

[2] = test system: E. coli DH10B-T7His-Theo4; type: cell-based, Escherichia coli
Description: The performance of the cascade was measured using GFPuv expression (FIG. 12). Specifically, the theophylline dependency of the cascade at 0.8 mg/L rhamnose was measured. […] Additionally, expression of GFPuv over a wide range of rhamnose and theophylline concentrations was determined.
E. coli DH10B-T7His-Theo4 was grown overnight at 37° C. in LB medium containing kanamycin (50 mg/L). A 96 well 2 ml culture plate (Greiner) was filled with a concentrate of theophylline and L-rhamnose. […] Culture plates were incubated at 37° C. overnight under continuous shaking. The bacteria were centrifuged for 10 minutes at 4700 rpm in a Sorval Legend centrifuge. The supernatant was cleared and the cell pellet was resuspended in 500 μL 50 mM Tris-HCl pH 7.5. After resuspension, the plates were incubated at 37° C. for 1 hour to allow maturation of the GFPuv. 100 μL of suspension was pipetted into a 98 well black plate with clear bottom (Perkin Elmer) and measured with a Synergy MX plate reader. The cell density was measured by scattering at 600 nm and the fluorescence was measured at an excitation wavelength of 385 nm with a width of 20 nm and an emission wavelength of 508 nm with 20 nm width with a gain of 50. The background fluorescence and background scattering were subtracted and the fluorescence was divided by the scattering at 600 nm. The background fluorescence of bacteria without either GFPuv or T7His polymerase was negligible, but the fluorescence caused by other components than GFPuv in the bacteria was still subtracted.
The theophylline dependency of the cascade in response to differing concentrations of rhamnose was measured. E. coli DH10B-T7His-Theo4 diluted from an overnight culture were grown overnight in a 2 mL culture plate containing a variable amount of L-rhamnose and theophylline. The medium was cleared and the bacteria were resuspended in 50 mM Tris-HCl pH 7.5. The fluorescence was measured at an excitation wavelength of 385 nm and an emission wavelength of 508 nm. The cell density was measured by scattering at 600 nm.

[3] = test system: thyA knockout strain of E. coli; conditions: single theophylline-dependent intron, background subtracted; cited from earlier work

## Cn1c(=O)c2[nH]cnc2n(C)c1=O [theophylline]
[1]; overnight growth, E. coli DH10B thyA-deficient
  concentration above which theophylline became slightly toxic: Above 1 mM
[1]; read-out: apparent kd value, Michaelis-Menten-like profile of overnight growth vs theophylline concentration, two introns in thyA
  Kd: 100 to 200 µM
[2]; at any L-rhamnose concentration
  fold-change in GFPuv fluorescence caused by theophylline: around 15 times
[2]; fully induced with rhamnose and theophylline
  signal of fully induced system relative to strong TacI promoter (pSC034f): 5-6 times
[3]
  theophylline-induced growth, % of the parental intron: approximately 40%

## C[C@H](O)[C@H](O)[C@@H](O)[C@@H](O)C=O [rhamnose, L-rhamnose]
[2]; fully induced with rhamnose, theophylline absent, one intron cascade
  background expression, % of the maximum expression: about 7.5%
